{"source": "paper PMC7179907", "about": "“Novel AXL-specific inhibitor ameliorates kidney dysfunction through the inhibition of epithelial-to-mesenchymal transition of renal tubular cells” (PLoS ONE, 2020)", "key": {"[1]": {"test_system": "30 kinases including the TAM family (Tyro3, AXL and, Mer) of receptor tyrosine kinases", "assay": "30 kinase inhibitory assays (selectivity)", "format": "biochemical", "conditions": "Fig 2B", "text": "(§1) CH5451098 (N-cyclopropyl-2-[2-[8-[(2R)-2,3-dihydroxypropoxy]-6,6-dimethyl-11-oxo-naphtho[2,3-b]benzofuran-3-yl]ethynyl]pyridine-4-carboxamide), a selective inhibitor of AXL, was synthesized at Chugai Pharmaceutical Co. Ltd. (Fig 1). The following recombinant proteins were used for the kinase assay: AXL, Mer, Tyro3, Flt3, JAK2, EGFR, HER2, KIT, PDGFRβ, FGFR2, KDR, MET, ALK, EPHA2, EPHB2, FAK, SRC, ABL, ERK1, PKA, AKT1, PKACα, PKACβ1, AurA, CHK1, CHK2, MNK1, CDK1, and p38α from Carna Biosciences (Kobe, Japan), and Raf1 from Thermo Fisher Scientific (Waltham, MA). Recombinant mouse TGFβ1 (mTGFβ1) and recombinant mouse Gas6 (mGas6) were purchased from R&D systems. All other chemicals were of the highest purity available. The following primary antibodies were used for this study: anti-beta catenin (8480), anti-zinc finger E-box-binding homeobox 1 (Zeb1) (3396), anti-glyceraldehyde-3-phosphate dehydrogenase (GAPDH) (8884) antibody from Cell Signaling Technology (Danvers, MA). […]\n(§2) Protein kinases were purchased from Carna Biosciences or Millipore. The inhibitory activity against each kinase was evaluated as described previously.\n(§3) Fig 2 In vitro kinase inhibitory activity of CH5451098. […] Enzyme inhibitory activity was calculated by the formula (1-T/C) x 100 (%), where T represents the measured value of the wells with a compound and C represents that of wells without a compound (n = 2). […]"}, "[2]": {"target": "T1, AXL (Homo sapiens, UniProt P30530)", "T1 construct": "purchased Carna Biosciences (Kobe, Japan)", "T1 sequence (P30530 26-894)": "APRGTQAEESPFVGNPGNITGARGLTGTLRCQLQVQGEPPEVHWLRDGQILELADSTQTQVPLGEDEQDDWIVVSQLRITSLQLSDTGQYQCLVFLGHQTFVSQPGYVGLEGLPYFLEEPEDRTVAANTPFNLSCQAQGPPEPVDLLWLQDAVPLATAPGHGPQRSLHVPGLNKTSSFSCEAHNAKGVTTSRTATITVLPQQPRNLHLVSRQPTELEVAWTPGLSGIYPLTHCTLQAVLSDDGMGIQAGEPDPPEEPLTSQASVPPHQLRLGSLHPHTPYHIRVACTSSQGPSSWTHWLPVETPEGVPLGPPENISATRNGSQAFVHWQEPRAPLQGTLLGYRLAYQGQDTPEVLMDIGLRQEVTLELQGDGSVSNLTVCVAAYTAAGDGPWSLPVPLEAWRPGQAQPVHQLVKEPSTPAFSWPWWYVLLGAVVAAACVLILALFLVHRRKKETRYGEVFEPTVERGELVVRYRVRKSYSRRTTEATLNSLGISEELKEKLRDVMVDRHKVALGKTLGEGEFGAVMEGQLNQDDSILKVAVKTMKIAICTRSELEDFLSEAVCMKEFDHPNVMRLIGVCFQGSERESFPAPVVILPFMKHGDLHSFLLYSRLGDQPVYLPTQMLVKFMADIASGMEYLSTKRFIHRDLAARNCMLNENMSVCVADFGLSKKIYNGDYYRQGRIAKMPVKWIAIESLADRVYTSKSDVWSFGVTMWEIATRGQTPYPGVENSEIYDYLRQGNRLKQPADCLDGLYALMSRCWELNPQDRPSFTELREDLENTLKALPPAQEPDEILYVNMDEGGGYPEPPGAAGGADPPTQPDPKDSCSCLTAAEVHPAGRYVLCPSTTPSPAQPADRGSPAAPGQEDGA", "assay": "Protein kinase assay, AXL", "format": "biochemical", "conditions": "recombinant AXL, 1.5 hours treatment, n = 2; read-out: IC50 against AXL kinase activity", "text": "as §1, §2, §3"}, "[3]": {"test_system": "NRK-52E cells", "assay": "EMT induced by TGFβ1 and Gas6 in NRK-52E cells (mRNA expression)", "format": "cell-based, rat", "conditions": "CH5451098 1 nmol/L; mTGFβ1 2 ng/mL and mGas6 500 ng/mL; 2 hours", "experimental": "RNA samples were extracted from frozen mouse kidney cortex or NRK-52E cells using an RNaesy Mini kit (QIAGEN, Hilden, Germany). cDNA were synthesized from RNA using a reverse transcription kit (Roche applied science, Penzberg, Germany). Expression levels were measured by a LightCycler 480 (Roche Applied science) using TaqMan probe/primer sets for each gene (Thermo Fisher Scientific).\nNRK-52E cell line derived from rat renal tubular epithelial cells was purchased from ATCC (Manassas, VA) and cultured in Dulbecco’s modified eagle’s medium with high glucose media supplemented with 5% FBS at 37°C under 5% CO 2 and 95% air.\nNRK-52E cells were seeded onto a collagen-coated plate and were cultured over-night. After reaching subconfluence, cells were cultured in serum restricted medium (0.5% FBS) for 6 hours. Then the cells were stimulated with recombinant mTGFβ1 (2 ng/mL) and/or recombinant mGas6 (500 ng/mL) followed by treatment with or without CH5451098 (1 nmol/L) for 15 minutes. The cells were lysed with RLT buffer (Qiagen) after 2 hours incubation with stimulants and mRNA was purified using RNeasy mini kit (Qiagen)."}, "[4]": {"test_system": "NEP25 mice", "assay": "NEP25 mouse model of glomerular nephritis (LMB2-induced)", "format": "in vivo", "experimental": "NEP25 mice, heterozygous podocyte-specific hCD25 transgenic mice, were bred in Tokai University and kindly provided by Matsusaka et al.. All mice were kept in well-controlled animal housing with free access to water and pellet food. Animal procedures and protocols were in accordance with the Guidelines for the Care and Use of Laboratory Animals at Chugai Pharmaceutical Co. Ltd. and approved by the Institutional Animal Care and Use Committee.\nTo induce disease, NEP25 mice were injected with 0.8 μg/kg of the immunotoxin LMB2 (provided from National Institutes of Health, USA) via the tail vein, except in the normal control group (n = 4). CH5451098 powder was suspended in a 0.5% carboxymethyl cellulose solution to prepare 1.0 mg/mL. Mice were divided into 2 groups and were orally administered vehicle (disease group, n = 10) or CH5451098 10 mg/kg once daily for 21 days (CH5451098 group, n = 10) from one day before LMB2 injection. The dose of CH5451098 was set high enough to inhibit AXL kinase activity throughout the day. Mice not treated with LMB2 were used as normal control.\nBlood and urine samples were collected on day 7, 14, or, 21 after LMB2 injection. Blood samples were collected from the abdominal portion of the vena cava under isoflurane anesthesia and were centrifuged to obtain serum samples. Urine samples were collected for 24 hours using a metabolic cage. The mice were euthanized by exsanguination under isoflurane anesthesia at day 22 after LMB2 injection. Kidney tissues were dissected for pathology (formalin-fixed or methyl carnoy-fixed) and kidney cortex samples were collected and snap frozen in liquid nitrogen.\nSerum urea nitrogen (BUN), creatinine (sCre) and urinary albumin (uAlb), N-Acetyl-beta-D Glucosaminidase (NAG), and creatinine were measured using an automatic analyzer (Hitachi 7100 Autoanlayzer, Hitachi Co., Ltd. Tokyo, Japan).\nRNA samples were extracted from frozen mouse kidney cortex or NRK-52E cells using an RNaesy Mini kit (QIAGEN, Hilden, Germany). cDNA were synthesized from RNA using a reverse transcription kit (Roche applied science, Penzberg, Germany). Expression levels were measured by a LightCycler 480 (Roche Applied science) using TaqMan probe/primer sets for each gene (Thermo Fisher Scientific). […]"}, "[5]": {"conditions": "10 mg/kg once daily 21 days, kidney cortex, vs disease control"}, "[6]": {"conditions": "10 mg/kg once daily 21 days, vs disease control"}, "[7]": {"conditions": "10 mg/kg orally once daily 21 days, blood 24 hours after final administration, mean ± SE, p<0.01 vs disease control"}, "[8]": {"conditions": "kidney cortex, 3 weeks after disease induction, vs disease control"}}, "data": [{"compound": "CC1(C)c2cc(OC[C@H](O)CO)ccc2C(=O)c2c1oc1cc(C#Cc3cc(C(=O)NC4CC4)ccn3)ccc21", "note": "[CH5451098, N-cyclopropyl-2-[2-[8-[(2R)-2,3-dihydroxypropoxy]-6,6-dimethyl-11-oxo-naphtho[2,3-b]benzofuran-3-yl]ethynyl]pyridine-4-carboxamide]", "values": [{"measurement": "selectivity against other kinases", "setting": "[1]", "result": "strongest inhibitory activity towards AXL among 30 kinases"}, {"measurement": "IC50", "setting": "[2]", "result": 3.8, "unit": "nM"}, {"measurement": "LCN2 mRNA induced by Gas6 and TGFβ1", "setting": "[3]", "result": "inhibited"}, {"measurement": "Snai1 mRNA induced by Gas6 along with TGFβ1", "setting": "[3]", "result": "markedly inhibited"}, {"measurement": "Twist1 mRNA induced by Gas6 along with TGFβ1", "setting": "[3]", "result": "markedly inhibited"}, {"measurement": "Zeb1 mRNA induced by Gas6 along with TGFβ1", "setting": "[3]", "result": "markedly inhibited"}, {"measurement": "enhancement of Pai1 mRNA", "setting": "[3]", "result": "suppressed"}, {"measurement": "enhancement of TGFβ1 mRNA", "setting": "[3]", "result": "suppressed"}, {"measurement": "uAlb excretion", "setting": "[4]; 10 mg/kg once daily 21 days, 3 weeks after disease induction, vs disease control", "result": "significantly decreased"}, {"measurement": "Renal LCN2 mRNA", "setting": "[4]; [5]", "result": "significantly decreased"}, {"measurement": "kidney Col1a1 mRNA", "setting": "[4]; [5]", "result": "significantly reduced"}, {"measurement": "kidney OH-Pro content", "setting": "[4]; [5]", "result": "suppressed"}, {"measurement": "kidney Pai1 mRNA", "setting": "[4]; [5]", "result": "significantly inhibited"}, {"measurement": "kidney Snai1 mRNA", "setting": "[4]; [5]", "result": "did not reduce"}, {"measurement": "kidney TGFβ1 mRNA expression", "setting": "[4]; [5]", "result": "only a partial reduction"}, {"measurement": "kidney Twist1 mRNA", "setting": "[4]; [5]", "result": "tended to suppress"}, {"measurement": "kidney Zeb1 mRNA", "setting": "[4]; [5]", "result": "suppressed"}, {"measurement": "Urinary NAG excretion", "setting": "[4]; 10 mg/kg once daily 21 days, urine 0 to 24 hours after final administration, vs disease control", "result": "significantly inhibited"}, {"measurement": "abundance of stained connective tissue (Sirius red and Masson's Trichrome staining)", "setting": "[4]; [6]", "result": "inhibited"}, {"measurement": "destruction of glomerular structure (periodic acid-Schiff stain)", "setting": "[4]; [6]", "result": "ameliorated"}, {"measurement": "tubulointerstitial fibrosis (semi-quantitative score, Masson's trichrome)", "setting": "[4]; [6]", "result": "significantly suppressed"}, {"measurement": "BUN", "setting": "[4]; [7]", "result": "55 ± 5.0", "unit": "mg/dL"}, {"measurement": "Serum creatinine (sCre)", "setting": "[4]; [7]", "result": "0.15 ± 0.019", "unit": "mg/dL"}, {"measurement": "uAlb leakage", "setting": "[4]; 2 weeks after disease induction, compared to DC group, data not shown", "result": "no effect"}, {"measurement": "kidney Zeb1 protein level (western blotting)", "setting": "[4]; [8]", "result": "reduced"}, {"measurement": "kidney beta-catenin protein level (western blotting)", "setting": "[4]; [8]", "result": "reduced"}]}]}
